According to article PMC10762035, “Molecular basis of human trace amine-associated receptor 1 activation” (Nature Communications, 2024):
Where a chain is given by its changes, count along the chain named. Several values for one entry are separate records, joined by “and”; a condition that tells them apart may be missing. Identical values can stand only once. Like-named read-outs stand apart in the source and are kept apart here.

What was measured:
Assay type in all cases: cell-based
[1] = target: T1, β2AR-Nterm-hTA1-F112^3.41W (CryoEM Construct) (Homo sapiens, UniProt Q96RJ0, F112W); experiment: GloSensor cAMP accumulation assay, cryoEM construct;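 further: cells transiently co-transfected with the receptor construct and GloSensor cAMP biosensor, luminescence read after 30 min compound exposure at room temperature in the dark as cAMP accumulation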;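 on Normalized Luminescence Counts (N=2): normalized to the maximum response of β-PEA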
T1 construct: FLAG (N); 10xHis (N); TEV protease site (N); expressed in transfected cells; host or cells: HEK293T

[2] = target: T2, hTA1 b2N (Homo sapiens, UniProt Q96RJ0); experiment: GloSensor cAMP accumulation assay, b2N construct
T2 construct: read by me as the first 25 residues of β2AR (N); expressed in transfected cells; host or cells: HEK293T

[3] = target: T3, hTA1 I290Y (Homo sapiens, UniProt Q96RJ0, I290Y); experiment: GloSensor cAMP accumulation assay, I290Y mutant; conditions: for cAMP accumulation response, normalized (concentration-response source data, single replicate values): hTA1 I290Y (N=3), log[Compound];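 on cAMP accumulation response, normalized (concentration-response source data, single replicate values): normalized to the maximum response of β-PEA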
T3 construct: expressed in transfected cells; host or cells: HEK293T
T3 sequence (Q96RJ0 1-339 I290Y): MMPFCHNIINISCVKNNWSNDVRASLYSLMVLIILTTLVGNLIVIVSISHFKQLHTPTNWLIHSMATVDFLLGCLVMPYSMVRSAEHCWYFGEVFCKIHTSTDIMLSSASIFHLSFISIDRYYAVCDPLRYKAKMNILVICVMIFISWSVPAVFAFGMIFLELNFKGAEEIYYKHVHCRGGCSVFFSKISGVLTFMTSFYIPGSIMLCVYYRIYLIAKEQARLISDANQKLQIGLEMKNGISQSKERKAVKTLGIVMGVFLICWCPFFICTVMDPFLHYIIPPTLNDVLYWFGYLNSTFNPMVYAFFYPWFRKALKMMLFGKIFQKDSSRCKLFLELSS

[4] = target: T4, hTA1 (Homo sapiens, UniProt Q96RJ0); experiment: GloSensor cAMP accumulation assay, concentration response, wild-type hTA1 in transfected HEK293T cells; conditions: for Emax: HEK-293T;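 on all read-outs here: luminescence read after 30 min compound exposure at room temperature in cells preloaded with D-Luciferin, reflecting Gs-driven cAMP rise, efficacy scaled to the maximal β-PEA response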
T4 construct: expressed in transfected cells; host or cells: HEK293T
T4 sequence (Q96RJ0 1-339): T3 sequence (Q96RJ0 1-339 I290Y) with Y290I

[5] = target: T5, hTA1 C5S (Homo sapiens, UniProt Q96RJ0, C5S); experiment: GloSensor cAMP accumulation assay, C5S mutant; conditions: for C5S - Normalized Luminescence Counts (N=2): log[Compound], single wells
T5 construct: expressed in transfected cells; host or cells: HEK293T
T5 sequence (Q96RJ0 1-339 C5S): T3 sequence (Q96RJ0 1-339 I290Y) with C5S, Y290I

[6] = read-out: Span ± SEM (Emax normalized to β-PEA)

T1 sequence (Q96RJ0 with tags, fused parts or gaps F112W): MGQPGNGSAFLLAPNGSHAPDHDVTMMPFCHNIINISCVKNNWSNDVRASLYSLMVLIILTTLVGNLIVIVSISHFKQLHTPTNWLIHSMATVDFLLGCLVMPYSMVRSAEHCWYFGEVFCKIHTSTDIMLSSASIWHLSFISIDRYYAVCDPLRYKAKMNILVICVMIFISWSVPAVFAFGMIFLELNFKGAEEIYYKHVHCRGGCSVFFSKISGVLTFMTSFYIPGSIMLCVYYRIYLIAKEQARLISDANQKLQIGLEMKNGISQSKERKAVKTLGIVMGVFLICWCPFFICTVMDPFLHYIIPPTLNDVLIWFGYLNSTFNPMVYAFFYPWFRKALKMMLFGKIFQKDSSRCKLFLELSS
T2 sequence (Q96RJ0 with tags, fused parts or gaps): as the sequence (Q96RJ0 with tags, fused parts or gaps F112W) above, with W137F counted along it

With `CCC(CC1COC(N)=N1)c1ccccc1` (stereo not drawn) [Ro5256390] the “ΔpEC50 values (each mutant value - WT average), Mean” value ([1]; Cryo EM Construct minus WT average) was 0.183 and 0.4564, the “Normalized Luminescence Counts (N=2)” value ([1]; CryoEM Construct, log[Compound], M = -5, single replicates) was 109.262 and 115.846 and 129.746 and 127.392 and the EC50 ([1]; EC50, CryoEM Construct, n=2) was 2.47 nM. The EC50 ([1]; pEC50 values, Mean, Cryo EM Construct, mean of each independent experiment (3 replicates)) was 3.5 nM and 1.87 nM, the Emax [1, 6] was 102 ± 2.88% and the EC50 [2] was 1.56 nM. The Emax [2, 6] was 97.7 ± 9.34%, the EC50 ([3]; EC50, I290Y) was 3.79 nM and the “Emax values, Mean” value ([3]; I290Y, single experiments (3 replicates each), β-PEA = 100) was 89.4977 and 95.7835 and 67.042. For the same compound, the “cAMP accumulation response, normalized (concentration-response source data, single replicate values)” value (“cAMP accumulation response, normalized” for short) ([3]; M = -5) was 116.004 and 90.4575 and 99.9991 and 95.6306 and 94.8977 and 106.257 and 79.386 and 92.9217 and 71.4902, the “cAMP accumulation response, normalized” value ([3]; M = -5.522) was 112.926 and 87.6874 and 89.8419 and 104.792 and 95.2641 and 96.3635 and 62.4664 and 47.8027 and 61.3384 and the “cAMP accumulation response, normalized” value ([3]; M = -6) was 83.3783 and 72.6056 and 91.3809 and 91.5998 and 83.1717 and 95.997 and 59.0825 and 62.4664 and 68.1063. For the same compound, the “cAMP accumulation response, normalized” value ([3]; M = -6.522) was 92.9198 and 66.4498 and 97.2289 and 82.4388 and 92.3327 and 95.997 and 63.5944 and 55.6986 and 61.3384, the “cAMP accumulation response, normalized” value ([3]; M = -7) was 110.156 and 60.6017 and 92.3043 and 89.4012 and 82.4388 and 95.997 and 47.8027 and 61.3384 and 55.6986 and the “cAMP accumulation response, normalized” value ([3]; M = -7.522) was 92.6121 and 50.1368 and 96.6133 and 79.5073 and 85.3703 and 95.2641 and 50.0587 and 56.8265 and 52.3146. The “cAMP accumulation response, normalized” value ([3]; M = -8) was 93.8432 (2×) and 82.1471 and 71.4457 and 85.3703 and 69.6135 and 30.8831 (2×) and 25.2433, the “cAMP accumulation response, normalized” value ([3]; M = -8.522) was 58.1394 and 51.6758 and 54.7537 and 45.0622 and 47.6273 and 45.4287 and 15.0915 and 9.4516 and 13.9635 and the “cAMP accumulation response, normalized” value ([3]; M = -9) was 42.442 and 23.359 and 39.3641 and 21.9767 and 28.939 and 28.2061 and 3.812 and 2.684 and 9.4516. The “cAMP accumulation response, normalized” value ([3]; M = -9.522) was 12.5863 and 7.046 and 12.2785 and 10.9836 and 8.785 and 11.7164 and -2.956 and -1.828 and 0.4278, the “cAMP accumulation response, normalized” value ([3]; M = -10) was 11.6629 and 9.816 and 11.9707 and -2.575 and -0.376 and 1.456 and 0.4278 and -0.7002 and -1.828 and the “cAMP accumulation response, normalized” value ([3]; M = -10.522) was 3.045. For the same compound, the EC50 ([3]; pEC50 values, Mean, I290Y, single experiments (3 replicates each)) was 1.77 nM and 2.74 nM and 11.3 nM, the EC50 ([3]; pEC50 ± SEM, I290Y) was 3.8 nM and the Emax [3, 6] was 84.1 ± 8.72%. For the same compound, the EC50 ([4]; EC50, wt hTA1, HEK293T, n=3) was 5.33 nM and 5.3 nM, the Emax ([4]; read-out: Emax values (Mean), WT hTA1, β-PEA = 100, each line an independent experiment, 3 replicates) was 105% and the Emax ([4]; wt hTA1, relative to β-PEA) was 103%. The “Emax values, Mean” value ([4]; WT hTA1, β-PEA = 100, each line an independent experiment, 3 replicates) was 101.582, the “Emax values, Avg” value ([4]; WT, average of the experiments, β-PEA = 100) was 103.3 and the “Emax values, Avg” value ([4]; WT, average of the two experiments) was 103.3. The “Emax values, Mean” value ([4]; WT, mean of each independent experiment (3 replicates), β-PEA = 100) was 105.026 and 101.582, the “Emax values, Mean” value ([4]; WT, single experiments (3 replicates each), β-PEA = 100) was 105.026 and 101.582 and the EC50 ([4]; pEC50 values (Mean), WT hTA1, each line an independent experiment, 3 replicates, Figure 2B source data) was 4.28 nM and 6.65 nM. For the same compound, the EC50 ([4]; pEC50 ± SEM, wt hTA1, HEK293T, n=3) was 5.37 nM, the EC50 ([5]; EC50, C5S, n=2) was 9.93 nM and the “Emax values, Mean” value ([5]; hTA1 C5S, β-PEA = 100, mean of 3 replicates, one line per independent experiment) was 93.1178. For the same compound, the “C5S - Normalized Luminescence Counts (N=2)” value ([5]; M = -5) was 103.833 and 96.8115 and 93.515 and 109.052 and 73.4937 and 115.059, the “C5S - Normalized Luminescence Counts (N=2)” value ([5]; M = -5.522) was 100.921 and 96.3599 and 95.6826 and 93.2407 and 55.8872 and 98.4881 and the “C5S - Normalized Luminescence Counts (N=2)” value ([5]; M = -6) was 105.12 and 94.0343 and 79.8326 and 75.5651 and 84.541 and 101.802. For the same compound, the “C5S - Normalized Luminescence Counts (N=2)” value ([5]; M = -6.522) was 95.389 and 104.217 and 100.289 and 100.214 and 115.957 and 88.6146, the “C5S - Normalized Luminescence Counts (N=2)” value ([5]; M = -7) was 82.6549 and 83.4903 and 89.3381 and 93.6549 and 93.9311 and 89.0289 and the “C5S - Normalized Luminescence Counts (N=2)” value ([5]; M = -7.522) was 62.4022 and 62.4925 and 74.2106 and 83.9196 and 70.5248 and 74.2532. For the same compound, the “C5S - Normalized Luminescence Counts (N=2)” value ([5]; M = -8) was 36.7307 and 40.4787 and 36.4823 and 59.3395 and 54.6444 and 53.6087, the “C5S - Normalized Luminescence Counts (N=2)” value ([5]; M = -9) was 8.372 and 7.4241 and 6.656 and 9.834 and 7.901 and 11.353 and the EC50 ([5]; pEC50 values, Mean, hTA1 C5S, mean of 3 replicates, one line per independent experiment) was 15.2 nM and 6.48 nM. The EC50 ([5]; pEC50 ± SEM, C5S, n=2) was 10 nM, the Emax ([5]; read-out: Emax values, Mean, hTA1 C5S, β-PEA = 100, mean of 3 replicates, one line per independent experiment) was 97.6% and the Emax ([5]; read-out: Span ± SEM (Emax normalized to β-PEA), C5S, n=2) was 95.4 ± 2.26%.
